Measured values as given in US10597388B2, “Pyridazinone herbicides” (FMC CORPORATION, priority 2014, dated 2020).

Legend:
Assay type in all cases: in vivo
[1] = test system: barnyardgrass (Echinochloa crus-galli); assay: Test B flooded paddy test; conditions: 250 g ai/ha, Flood; visual rating on scale of 0 to 100 where 0 is no effect and 100 is complete control; 13 to 15 d after treatment
Method in brief: (§1)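 Plants at the 2-leaf stage were flooded to 3 cm above soil, and test compounds were applied directly into the paddy water, which was held at that depth throughout. After 13 to 15 d in a greenhouse, injury was rated visually against untreated controls on a 0–100 scale (0 no effect, 100 complete control).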

[2] = test system: ducksalad (Heteranthera limosa); assay: Test B flooded paddy test; conditions: 250 g ai/ha, Flood; visual rating on scale of 0 to 100 where 0 is no effect and 100 is complete control; 13 to 15 d after treatment
Method in brief: as §1

rice (Oryza sativa) = assay: Test B flooded paddy test; conditions: 250 g ai/ha, Flood; visual rating on scale of 0 to 100 where 0 is no effect and 100 is complete control; 13 to 15 d after treatment
Method in brief: as §1

[3] = test system: sedge, umbrella (small-flower umbrella sedge, Cyperus difformis); assay: Test B flooded paddy test; conditions: 250 g ai/ha, Flood; visual rating on scale of 0 to 100 where 0 is no effect and 100 is complete control; 13 to 15 d after treatment
Method in brief: as §1

[4] = test system: ragweed (common ragweed, Ambrosia elatior); assay: Test C greenhouse herbicide test, pre- and postemergence
Method in brief: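 Each species was treated both before emergence, in a loam–sand soil mix, and after emergence, as 1- to 4-leaf seedlings in peat-based potting medium. Plants stayed in the greenhouse 13 to 15 d, then were scored from 0 (no effect) to 100 (complete control) relative to controls.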

[5] = test system: chickweed (common chickweed, Stellaria media); assay: Test C greenhouse herbicide test, postemergence
Method in brief: (§2)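 Test chemicals were applied postemergence to greenhouse plants at the 1- to 4-leaf stage (2–18 cm tall) growing in peat/vermiculite medium. After 13–15 d, injury was rated visually against untreated controls on a 0–100 scale (0 = no effect, 100 = complete control).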

kochia (Kochia scoparia) = assay: Test C greenhouse herbicide test, postemergence
Method in brief: as §2

[6] = test system: oat, wild (wild oat, Avena fatua); assay: Test C greenhouse herbicide test, postemergence
Method in brief: as §2

[7] = Postemergence, 31 g ai/ha, scale 0 to 100 (0 no effect, 100 complete control)
[8] = Postemergence, 125 g ai/ha, scale 0 to 100, 0 is no effect, 100 is complete control
[9] = Postemergence, 250 g ai/ha, scale 0 to 100, 0 no effect, 100 complete control, 13 to 15 d
[10] = Preemergence, 31 g ai/ha, scale 0 to 100, 0 is no effect, 100 is complete control
[11] = Preemergence, 62 g ai/ha, scale 0 to 100, 0 is no effect, 100 is complete control
[12] = Preemergence, 125 g ai/ha, scale 0 to 100, 0 is no effect, 100 is complete control
[13] = Preemergence, 250 g ai/ha, scale 0 to 100 (0 no effect, 100 complete control)
[14] = postemergence, 62 g ai/ha, scale 0 to 100, 0 no effect, 100 complete control
[15] = Postemergence, 31 g ai/ha, 0 to 100 scale (0 no effect, 100 complete control)
[16] = Postemergence, 62 g ai/ha, 0 to 100 scale (0 no effect, 100 complete control)
[17] = Postemergence, 250 g ai/ha, scale 0 to 100, 0 is no effect, 100 is complete control
[18] = postemergence, 125 g ai/ha, scale 0 to 100, 0 no effect, 100 complete control

SMILES | Plant response rating, Barnyardgrass [1] | Plant response rating, Ducksalad [2] | Plant response rating, Rice (rice (Oryza sativa)) | Plant response rating, Sedge, Umbrella [3] | Plant response rating, Ragweed [4, 7] | Plant response rating, Ragweed [4, 8] | Plant response rating, Ragweed [4, 9] | Plant response rating, Ragweed [4, 10] | Plant response rating, Ragweed [4, 11] | Plant response rating, Ragweed [4, 12] | Plant response rating, Chickweed [5, 7] | Plant response rating, Chickweed [5, 8] | Plant response rating, Chickweed [5, 9] | Chickweed plant response rating [5, 14] | Plant response rating, Kochia (kochia (Kochia scoparia); [7]) | Plant response rating, Kochia (kochia (Kochia scoparia); [8]) | Plant response rating, Kochia (kochia (Kochia scoparia); [9]) | Plant response rating, Oat, Wild [6, 7] | Plant response rating, Oat, Wild [6, 8] | Plant response rating, Oat, Wild [6, 9] | also measured
Cc1ccc2ccccc2c1-c1c(O)c(Cl)nn(C)c1=O [Compound 125] | 0 | 80 | 0 | 75 | 95 | 98 | 98 | 95 | 100 | 98 | 95 | 95 | 95 | 95 | 85 | 90 | 90 | 85 | 95 | 95 | Ragweed plant response rating [4, 13]: 100
Cc1ccc2ccccc2c1-c1c(O)c(C)nn(C)c1=O [Compound 59] | 0 | 0 | 0 | 0 |  | 95 | 98 | 90 | 95 | 100 |  | 98 | 98 | 98 |  | 85 | 90 |  | 90 | 98 | Ragweed plant response rating [4, 15]: 90; Ragweed plant response rating [4, 13]: 100; Ragweed plant response rating [4, 14]: 95; Chickweed plant response rating [5, 15]: 90; Kochia plant response rating (kochia (Kochia scoparia); [15]): 95; Kochia plant response rating (kochia (Kochia scoparia); [14]): 85; Oat, Wild plant response rating [6, 15]: 80; Oat, Wild plant response rating [6, 14]: 75
Cc1ccc2ccccc2c1-c1c(O)cnn(C)c1=O [Compound 56] | 0 | 0 | 0 | 0 |  | 60 | 60 |  |  |  |  | 55 | 70 | 10 |  | 90 | 100 |  | 20 | 40 | Ragweed plant response rating [4, 15]: 0; Ragweed plant response rating [4, 14]: 0; Chickweed plant response rating [5, 15]: 5; Kochia plant response rating (kochia (Kochia scoparia); [15]): 70; Kochia plant response rating (kochia (Kochia scoparia); [14]): 90; Oat, Wild plant response rating [6, 15]: 5; Oat, Wild plant response rating [6, 14]: 10
CCC(=O)Oc1c(Cl)nn(C)c(=O)c1-c1c(C)sc2ccc(Cl)cc12 [Compound 111] | 0 | 75 | 0 | 75 | 98 | 98 | 100 | 60 | 75 | 90 | 95 | 100 | 98 | 98 | 80 | 90 | 95 | 55 | 90 | 98 | Ragweed plant response rating [4, 13]: 98
COc1nn(C)c(=O)c(-c2c(C)ccc3ccccc23)c1O [Compound 54] | 0 | 0 | 0 | 0 |  | 95 | 98 | 90 | 90 | 95 |  | 95 | 100 | 95 |  | 90 | 95 |  | 60 | 85 | Ragweed plant response rating [4, 15]: 90; Ragweed plant response rating [4, 13]: 100; Ragweed plant response rating [4, 14]: 95; Chickweed plant response rating [5, 15]: 95; Kochia plant response rating (kochia (Kochia scoparia); [15]): 50; Kochia plant response rating (kochia (Kochia scoparia); [14]): 90; Oat, Wild plant response rating [6, 15]: 45; Oat, Wild plant response rating [6, 14]: 50
CC(=O)Oc1c(C)nn(C)c(=O)c1-c1c([N+](=O)[O-])ccc2ccccc12 [Compound 164] | 0 | 0 | 0 | 0 | 70 |  |  |  |  |  | 80 |  |  |  | 60 |  |  | 35 |  |  | Ragweed plant response rating [4, 16]: 80; Plant response rating, Ragweed [4, 17]: 90; Ragweed plant response rating [4, 18]: 85; Chickweed plant response rating [5, 16]: 90; Plant response rating, Chickweed [5, 17]: 98; Chickweed plant response rating [5, 18]: 95; Kochia plant response rating (kochia (Kochia scoparia); [16]): 85; Plant response rating, Kochia (kochia (Kochia scoparia); [17]): 95; Kochia plant response rating (kochia (Kochia scoparia); [18]): 90; Oat, Wild plant response rating [6, 16]: 45; Plant response rating, Oat, Wild [6, 17]: 80; Oat, Wild plant response rating [6, 18]: 70
Cc1nn(C)c(=O)c(-c2cccc3ccc(C#N)cc23)c1O [Compound 127] | 0 | 0 | 0 | 0 | 10 |  | 90 |  |  |  | 50 |  | 95 |  | 40 |  | 90 | 10 |  | 60 | Ragweed plant response rating [4, 16]: 55; Ragweed plant response rating [4, 18]: 60; Chickweed plant response rating [5, 16]: 90; Chickweed plant response rating [5, 18]: 90; Kochia plant response rating (kochia (Kochia scoparia); [16]): 85; Kochia plant response rating (kochia (Kochia scoparia); [18]): 95; Oat, Wild plant response rating [6, 16]: 20; Oat, Wild plant response rating [6, 18]: 55
Cc1nn(C)c(=O)c(-c2ccc(F)c3ccccc23)c1OC(=O)CC(F)(F)F [Compound 123] | 20 | 30 | 15 | 70 | 75 | 95 | 98 |  |  |  | 90 | 90 | 98 | 90 | 95 | 95 | 98 | 70 | 90 | 95 | 
Cc1cc(C)c2ccccc2c1-c1c(O)cnn(C)c1=O [Compound 51] | 0 | 0 | 0 | 0 |  | 5 | 25 |  |  |  |  | 70 | 90 | 55 |  | 50 | 75 |  | 5 | 10 | Ragweed plant response rating [4, 15]: 10; Ragweed plant response rating [4, 14]: 5; Chickweed plant response rating [5, 15]: 50; Kochia plant response rating (kochia (Kochia scoparia); [15]): 0; Kochia plant response rating (kochia (Kochia scoparia); [14]): 15; Oat, Wild plant response rating [6, 15]: 0; Oat, Wild plant response rating [6, 14]: 5
